The target in experiment [1] is T1, Androgen receptor (Homo sapiens, UniProt P10275).
T1 sequence (P10275 whole entry): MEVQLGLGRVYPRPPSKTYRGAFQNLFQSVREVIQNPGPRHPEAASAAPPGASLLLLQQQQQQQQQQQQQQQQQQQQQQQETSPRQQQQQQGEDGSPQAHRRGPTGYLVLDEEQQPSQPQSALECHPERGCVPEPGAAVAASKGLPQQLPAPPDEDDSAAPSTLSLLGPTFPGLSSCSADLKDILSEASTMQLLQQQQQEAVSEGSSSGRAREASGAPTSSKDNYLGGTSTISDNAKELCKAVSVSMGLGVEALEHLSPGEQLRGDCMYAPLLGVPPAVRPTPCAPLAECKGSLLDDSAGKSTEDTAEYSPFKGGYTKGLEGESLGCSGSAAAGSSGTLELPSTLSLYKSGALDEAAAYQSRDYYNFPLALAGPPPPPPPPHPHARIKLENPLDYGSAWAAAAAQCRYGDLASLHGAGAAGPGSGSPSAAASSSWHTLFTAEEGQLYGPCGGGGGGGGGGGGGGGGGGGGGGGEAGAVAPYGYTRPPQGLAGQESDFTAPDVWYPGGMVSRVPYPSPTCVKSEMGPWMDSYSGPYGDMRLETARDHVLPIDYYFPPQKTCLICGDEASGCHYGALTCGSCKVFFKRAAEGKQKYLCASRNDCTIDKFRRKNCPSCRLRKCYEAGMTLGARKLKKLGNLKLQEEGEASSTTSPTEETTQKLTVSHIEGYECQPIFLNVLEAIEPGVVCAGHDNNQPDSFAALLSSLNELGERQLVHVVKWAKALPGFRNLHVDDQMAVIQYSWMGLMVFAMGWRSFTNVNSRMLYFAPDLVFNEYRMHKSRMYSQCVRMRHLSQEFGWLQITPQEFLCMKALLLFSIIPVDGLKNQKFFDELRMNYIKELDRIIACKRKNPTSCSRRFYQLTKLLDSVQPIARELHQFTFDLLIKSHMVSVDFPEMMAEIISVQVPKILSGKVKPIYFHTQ
Kind of experiment: Binding affinity against human androgen receptor (hAR) in competitive binding assay; NB means No binding.

Experiment [2] concerns the target T1, Androgen receptor. Nature of the experiment: Binding affinity against human androgen receptor (hAR) in competitive binding assay.

As for `C[C@@]1(C(=O)Nc2ccc([N+](=O)[O-])c(C(F)(F)F)c2)CO1`, the Ki (as a rule, the equilibrium dissociation constant of an inhibitor or competing ligand from its target) at Androgen receptor [1] is recorded as “Not Active”.

On to `C[C@](O)(CBr)C(=O)Nc1ccc(N)c(C(F)(F)F)c1`, for which the affinity on Androgen receptor [2] corresponds to a Ki of 0.0809 µM.
